PubChem BioAssay AID248 (DTP/NCI, 2004)
“And” between values parts separate entries of the source, which are not always exact repeats. Equal entries are not always repeated. Inconclusive results and toxic doses are left out. Rule as the data show it: active = T/C of 150% or more; inactive = T/C below 125%.

Test system: L1210 leukemia ip in BDF1 mice, survival T/C
Assay: NCI In Vivo Anticancer Drug Screen. Data for tumor model L1210 Leukemia (intraperitoneal) in B6D2F1 (BDF1) mice
Conditions: endpoint: mean survival time, higher = longer survival
Outline: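 Mice bearing the transplanted tumor received compound or vehicle. Survival of the treated group was divided by that of the vehicle-treated control group to give the ratio.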

[1] = dose: 50.0 mg/kg/injection, schedule: Q04DX003 (ip), vehicle: Klucel (hydroxypropylcellulose) (HPC)
[2] = dose: 100.0 mg/kg/injection, schedule: Q01DX009 (ip), vehicle: Klucel (hydroxypropylcellulose) (HPC)
[3] = dose: 100.0 mg/kg/injection, schedule: Q04DX003 (ip), vehicle: Klucel (hydroxypropylcellulose) (HPC)
[4] = dose: 200.0 mg/kg/injection, schedule: Q01DX009 (ip), vehicle: Klucel (hydroxypropylcellulose) (HPC)
[5] = dose: 200.0 mg/kg/injection, schedule: Q04DX003 (ip), vehicle: Klucel (hydroxypropylcellulose) (HPC)
[6] = dose: 400.0 mg/kg/injection, schedule: Q01DX009 (ip), vehicle: Klucel (hydroxypropylcellulose) (HPC)
[7] = dose: 400.0 mg/kg/injection, schedule: Q04DX003 (ip), vehicle: Klucel (hydroxypropylcellulose) (HPC)
[8] = dose: 100.0 mg/kg/injection, schedule: Q01DX001 (ip), vehicle: Klucel (hydroxypropylcellulose) (HPC)
[9] = dose: 200.0 mg/kg/injection, schedule: Q01DX001 (ip), vehicle: Klucel (hydroxypropylcellulose) (HPC)
[10] = dose: 100.0 mg/kg/injection, schedule: Q01DX009 (ip), vehicle: saline with Tween-80
[11] = dose: 200.0 mg/kg/injection, schedule: Q01DX009 (ip), vehicle: saline with Tween-80
[12] = dose: 100.0 mg/kg/injection, schedule: Q01DX001 (ip), vehicle: saline with Tween-80
[13] = dose: 200.0 mg/kg/injection, schedule: Q01DX001 (ip), vehicle: saline with Tween-80
[14] = dose: 400.0 mg/kg/injection, schedule: Q01DX001 (ip), vehicle: saline with Tween-80
[15] = dose: 100.0 mg/kg/injection, schedule: Q04DX003 (ip), vehicle: saline
[16] = dose: 200.0 mg/kg/injection, schedule: Q04DX003 (ip), vehicle: saline
[17] = dose: 400.0 mg/kg/injection, schedule: Q01DX009 (ip), vehicle: saline with Tween-80
[18] = dose: 400.0 mg/kg/injection, schedule: Q04DX003 (ip), vehicle: saline

Measured: T/C

CCCCC(CC)CCC(O)CC(C)C (stereo not drawn)
inactive: [1] 91 % of control | [2] 104 % of control | [3] 92 % of control | [4] 101 % of control | [5] 97 % of control | [6] 89 % of control | [7] 96 % of control

O=C1CCC=C(c2cccc([N+](=O)[O-])c2)O1
inactive: [3] 100 % of control | [5] 94 % of control | [7] 94 % of control

Cc1cc(C)c([N+](=O)[O-])cc1N
inactive: dose: 50.0 mg/kg/injection, schedule: Q01DX001 (ip), vehicle: Klucel (hydroxypropylcellulose) (HPC) 101 % of control | [8] 98 % of control | [9] 93 % of control

CCN(Cc1ccc(Cl)c(Cl)c1)c1ccc2nc(N)nc(N)c2c1C
inactive: dose: 1.56 mg/kg/injection, schedule: Q01DX009 (ip), vehicle: water 110 % of control | dose: 3.12 mg/kg/injection, schedule: Q01DX009 (ip), vehicle: water 103 % of control and 110 % of control | dose: 6.25 mg/kg/injection, schedule: Q01DX009 (ip), vehicle: water 116 % of control and 124 % of control | dose: 12.5 mg/kg/injection, schedule: Q01DX009 (ip), vehicle: water 121 % of control | dose: 25.0 mg/kg/injection, schedule: Q01DX009 (ip), vehicle: water 110 % of control

C/C(=N/NC(N)=S)c1cccc(C(F)(F)F)c1
inactive: dose: 37.5 mg/kg/injection, schedule: Q01DX009 (ip), vehicle: Klucel (hydroxypropylcellulose) (HPC) 97 % of control | dose: 75.0 mg/kg/injection, schedule: Q01DX009 (ip), vehicle: Klucel (hydroxypropylcellulose) (HPC) 95 % of control

CCNC(=O)c1cc(NCC)nc(Cl)n1
inactive: [3] 97 % of control | [5] 94 % of control | [7] 101 % of control

CC(=O)NC1C(Nc2ccc(S(=O)(=O)Nc3nccc(C)n3)cc2)OC(CO)C(O)C1O (stereo not drawn)
inactive: dose: 250.0 mg/kg/injection, schedule: Q01DX Z (ip), vehicle: methylcellulose (MC) 94 % of control | dose: 375.0 mg/kg/injection, schedule: Q01DX Z (ip), vehicle: methylcellulose (MC) 93 % of control | dose: 500.0 mg/kg/injection, schedule: Q01DX Z (ip), vehicle: methylcellulose (MC) 102 % of control

Cc1ccc(NC(=O)C(=O)Nc2ccc(C)cc2)cc1
inactive: [2] 90 % of control | dose: 100.0 mg/kg/injection, schedule: Q04DX003 (ip), vehicle: other 93 % of control | [4] 89 % of control | dose: 200.0 mg/kg/injection, schedule: Q04DX003 (ip), vehicle: other 92 % of control | [6] 90 % of control | dose: 400.0 mg/kg/injection, schedule: Q04DX003 (ip), vehicle: other 89 % of control

Ic1cccc(Oc2ccccc2)c1
inactive: [10] 114 % of control | [11] 91 % of control

CCc1cnc(N)nc1N
inactive: dose: 25.0 mg/kg/injection, schedule: Q01DX009 (ip), vehicle: Klucel (hydroxypropylcellulose) (HPC) 107 % of control | dose: 50.0 mg/kg/injection, schedule: Q01DX009 (ip), vehicle: Klucel (hydroxypropylcellulose) (HPC) 101 % of control | [8] 107 % of control | [2] 104 % of control

CC12CC(O)C3C(CCC4CC(O)CCC43C)C1CCC2C(=O)CO (stereo not drawn)
inactive: dose: 100.0 mg/kg/injection, schedule: Q01DX001 (sc), vehicle: steriod suspending solution 102 % of control | dose: 200.0 mg/kg/injection, schedule: Q01DX001 (sc), vehicle: steriod suspending solution 104 % of control | dose: 400.0 mg/kg/injection, schedule: Q01DX001 (sc), vehicle: steriod suspending solution 102 % of control

COC(=O)C1CC23CCCC12CC3 (stereo not drawn)
inactive: dose: 50.0 mg/kg/injection, schedule: Q04DX002 (ip), vehicle: saline with Tween-80 92 % of control | dose: 100.0 mg/kg/injection, schedule: Q04DX002 (ip), vehicle: saline with Tween-80 103 % of control | dose: 200.0 mg/kg/injection, schedule: Q04DX002 (ip), vehicle: saline with Tween-80 92 % of control

O=[N+]([O-])c1ccc(Cl)c(OCCCOc2ccc(S(=O)(=O)F)cc2)c1
inactive: [12] 96 % of control | [13] 87 % of control | [14] 90 % of control

CN(C)c1ccc(C(=O)CCCN2CCC(O)(c3ccc(Cl)cc3)CC2)cc1
inactive: [8] 95 % of control | [9] 94 % of control | dose: 400.0 mg/kg/injection, schedule: Q01DX001 (ip), vehicle: Klucel (hydroxypropylcellulose) (HPC) 90 % of control

OC(CCl)C(O)C(O)C(O)CCl (stereo not drawn)
inactive: dose: 44.0 mg/kg/injection, schedule: Q01DX001 (ip), vehicle: saline 103 % of control | dose: 66.0 mg/kg/injection, schedule: Q01DX001 (ip), vehicle: saline 103 % of control | [12] 95 % of control | dose: 100.0 mg/kg/injection, schedule: Q01DX001 (ip), vehicle: saline 103 % of control | dose: 150.0 mg/kg/injection, schedule: Q01DX001 (ip), vehicle: saline 96 % of control | [13] 92 % of control | dose: 200.0 mg/kg/injection, schedule: Q01DX001 (ip), vehicle: saline 101 % of control | [14] 89 % of control | dose: 400.0 mg/kg/injection, schedule: Q01DX001 (ip), vehicle: saline 97 % of control

CC(C)(C)c1ccc(SCN(CSc2ccc(C(C)(C)C)cc2)Cc2ccccc2)cc1
inactive: dose: 100.0 mg/kg/injection, schedule: Q01DX001 (ip), vehicle: other 105 % of control | dose: 200.0 mg/kg/injection, schedule: Q01DX001 (ip), vehicle: other 100 % of control | dose: 400.0 mg/kg/injection, schedule: Q01DX001 (ip), vehicle: other 94 % of control

Cc1ccc(S(=O)(=O)NCN2C(=O)c3ccccc3C2=O)cc1
inactive: dose: 100.0 mg/kg/injection, schedule: Q01DX001 (ip), vehicle: acetone 98 % of control | [10] 93 % of control | [15] 94 % of control | dose: 200.0 mg/kg/injection, schedule: Q01DX001 (ip), vehicle: acetone 93 % of control | [11] 98 % of control | [16] 97 % of control | dose: 400.0 mg/kg/injection, schedule: Q01DX001 (ip), vehicle: acetone 95 % of control | [17] 97 % of control | [18] 99 % of control

CCCCCCCCCCCCCCCCOc1ccc(C(=O)OC)cc1N
inactive: [3] 102 % of control | [5] 104 % of control | [7] 96 % of control

CC(C)(CNCc1ccccc1)COS(=O)(=O)O
inactive: [15] 102 % of control | [16] 102 % of control | [18] 100 % of control

O=C(O)C1OC1(c1cccc(Cl)c1)c1ccccc1Cl (stereo not drawn)
inactive: dose: 100.0 mg/kg/injection, schedule: Q01DX001 (ip), vehicle: olive oil, sesame oil, peanut oil 101 % of control | dose: 200.0 mg/kg/injection, schedule: Q01DX001 (ip), vehicle: olive oil, sesame oil, peanut oil 106 % of control

COC(=O)CCC(=O)CCC(C)C
inactive: [10] 110 % of control | dose: 100.0 mg/kg/injection, schedule: Q04DX003 (ip), vehicle: saline with Tween-80 103 % of control | [11] 92 % of control | [17] 101 % of control | dose: 400.0 mg/kg/injection, schedule: Q04DX003 (ip), vehicle: saline with Tween-80 93 % of control

CCCCCCCCCCCCNC(C1=C(O)c2ccccc2C(=O)C1=O)c1ccccc1 (stereo not drawn)
inactive: [12] 95 % of control | [13] 88 % of control | [14] 95 % of control

CC(NC(=O)c1ccccc1)C(=O)NC(CSC(c1ccccc1)c1ccccc1)C(=O)O (stereo not drawn)
inactive: dose: 25.0 mg/kg/injection, schedule: Q01DX009 (ip), vehicle: saline 102 % of control | dose: 50.0 mg/kg/injection, schedule: Q01DX009 (ip), vehicle: saline 100 % of control | dose: 100.0 mg/kg/injection, schedule: Q01DX009 (ip), vehicle: saline 93 % of control and 90 % of control | [15] 94 % of control | [16] 100 % of control

COC(=O)Nc1cccc2c1-c1ccccc1C2=O
inactive: [1] 95 % of control | [3] 95 % of control | [5] 100 % of control

Cc1cccc(Cl)c1NC(=O)c1cccc(C(=O)Nc2c(C)cccc2Cl)c1
inactive: [2] 96 % of control | [4] 94 % of control | [6] 91 % of control
